Data on two compounds can be found in patent US12612407B2, “Imidazo[2,1-f][1,2,4]triazin-4-amine derivatives as TLR7 agonist” (BEIGENE, LTD., priority 2020, dated 2026).

As usually defined, the EC50 is the concentration needed to bring the measured effect to its halfway point. High values mean a need for much substance, low ones an effect from little substance.

Test [1] addresses T1, human TLR 8 protein (Homo sapiens, UniProt Q9NR97).
T1 construct: expressed in transfected cells; host or cells: HEK293 (HEK-Blue hTLR8)
T1 sequence (Q9NR97 27-1041): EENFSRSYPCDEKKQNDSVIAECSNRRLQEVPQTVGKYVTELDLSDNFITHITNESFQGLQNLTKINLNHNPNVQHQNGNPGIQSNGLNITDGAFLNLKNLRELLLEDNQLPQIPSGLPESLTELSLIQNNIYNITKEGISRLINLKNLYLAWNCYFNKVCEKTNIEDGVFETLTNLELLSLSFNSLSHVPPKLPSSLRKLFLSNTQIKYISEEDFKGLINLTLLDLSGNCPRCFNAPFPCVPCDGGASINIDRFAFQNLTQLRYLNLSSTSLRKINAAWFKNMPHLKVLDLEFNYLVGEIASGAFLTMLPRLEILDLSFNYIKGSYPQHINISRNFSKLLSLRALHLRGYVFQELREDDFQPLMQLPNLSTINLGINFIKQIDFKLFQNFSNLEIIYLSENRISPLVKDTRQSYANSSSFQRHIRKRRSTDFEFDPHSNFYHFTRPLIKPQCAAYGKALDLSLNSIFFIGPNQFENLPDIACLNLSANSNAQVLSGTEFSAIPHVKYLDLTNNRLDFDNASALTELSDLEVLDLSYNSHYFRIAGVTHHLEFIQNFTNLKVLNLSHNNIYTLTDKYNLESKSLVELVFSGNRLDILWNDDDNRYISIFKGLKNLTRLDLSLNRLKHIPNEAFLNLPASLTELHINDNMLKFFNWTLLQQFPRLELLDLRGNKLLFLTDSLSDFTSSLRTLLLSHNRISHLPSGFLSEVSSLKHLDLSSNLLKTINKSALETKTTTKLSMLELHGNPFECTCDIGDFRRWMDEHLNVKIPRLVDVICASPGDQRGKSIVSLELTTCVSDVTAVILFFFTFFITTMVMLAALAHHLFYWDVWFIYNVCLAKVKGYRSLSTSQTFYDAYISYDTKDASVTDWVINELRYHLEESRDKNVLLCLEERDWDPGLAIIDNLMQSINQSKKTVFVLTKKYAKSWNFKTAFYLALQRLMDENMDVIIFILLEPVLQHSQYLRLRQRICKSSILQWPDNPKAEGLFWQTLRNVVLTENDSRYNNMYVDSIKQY
Kind of test: TLR8 Stimulation determined using HEK-Blue Detection. It is filed as cell-based. The note with it: HEK-Blue hTLR8 cells, 16 hr, percentages of maximum activation with Resiquimod or Motolimod, Table 3. An excerpt:
TLR8 Stimulation determined using HEK-Blue Detection
(§1) This assay was designed for studying the stimulation of human TLR 8 protein in HEK-Blue hTLR8 tool cell line by monitoring the activation of NF-κB. HEK-Blue hTLR8 cells were obtained by co-transfection of the hTLR8 gene and an optimized secreted embryonic alkaline phosphatase (SEAP) reporter gene into HEK293 cells. The SEAP reporter gene was placed under the control of the IFN-β minimal promoter fused to five NF-κB and AP-1-binding sites. Stimulation with a TLR 8 ligand activates NF-κB and AP-1 which induce the expression of SEAP. Levels of SEAP can be easily determined with HEK-Blue Detection, a cell culture medium that allows for real-time detection of SEAP. HEK-Blue Detection contains all the nutrients necessary for cell growth and a specific SEAP color substrate. The hydrolysis of the substrate by SEAP produces a purple/blue color that can be measured with a spectrophotometer.
When growing to 50-80% confluency, HEK-Blue hTLR7/8 cells were plated into 96-well plate (costar 3599) at a density of 40000 cells/well. Then compounds were added with serial dilutions over 10 points with a 1 nM-10 uM final concentration range in 0.1% DMSO/HEK-Blue Detection. The plates were then incubated for 16 hr at 37° C. in 5% CO2. The optical density at 620-655 nm was read on BMG PHERAstar FSX instrument. The EC50 for each compound was determined by calculating the percentages of the maximum activation identified with Resiquimod or Motolimod.

In test [2] the target is T2, human TLR7 (Homo sapiens, UniProt Q9NYK1).
T2 construct: host or cells: HEK293 (HEK-Blue hTLR7)
T2 sequence (Q9NYK1 27-1049): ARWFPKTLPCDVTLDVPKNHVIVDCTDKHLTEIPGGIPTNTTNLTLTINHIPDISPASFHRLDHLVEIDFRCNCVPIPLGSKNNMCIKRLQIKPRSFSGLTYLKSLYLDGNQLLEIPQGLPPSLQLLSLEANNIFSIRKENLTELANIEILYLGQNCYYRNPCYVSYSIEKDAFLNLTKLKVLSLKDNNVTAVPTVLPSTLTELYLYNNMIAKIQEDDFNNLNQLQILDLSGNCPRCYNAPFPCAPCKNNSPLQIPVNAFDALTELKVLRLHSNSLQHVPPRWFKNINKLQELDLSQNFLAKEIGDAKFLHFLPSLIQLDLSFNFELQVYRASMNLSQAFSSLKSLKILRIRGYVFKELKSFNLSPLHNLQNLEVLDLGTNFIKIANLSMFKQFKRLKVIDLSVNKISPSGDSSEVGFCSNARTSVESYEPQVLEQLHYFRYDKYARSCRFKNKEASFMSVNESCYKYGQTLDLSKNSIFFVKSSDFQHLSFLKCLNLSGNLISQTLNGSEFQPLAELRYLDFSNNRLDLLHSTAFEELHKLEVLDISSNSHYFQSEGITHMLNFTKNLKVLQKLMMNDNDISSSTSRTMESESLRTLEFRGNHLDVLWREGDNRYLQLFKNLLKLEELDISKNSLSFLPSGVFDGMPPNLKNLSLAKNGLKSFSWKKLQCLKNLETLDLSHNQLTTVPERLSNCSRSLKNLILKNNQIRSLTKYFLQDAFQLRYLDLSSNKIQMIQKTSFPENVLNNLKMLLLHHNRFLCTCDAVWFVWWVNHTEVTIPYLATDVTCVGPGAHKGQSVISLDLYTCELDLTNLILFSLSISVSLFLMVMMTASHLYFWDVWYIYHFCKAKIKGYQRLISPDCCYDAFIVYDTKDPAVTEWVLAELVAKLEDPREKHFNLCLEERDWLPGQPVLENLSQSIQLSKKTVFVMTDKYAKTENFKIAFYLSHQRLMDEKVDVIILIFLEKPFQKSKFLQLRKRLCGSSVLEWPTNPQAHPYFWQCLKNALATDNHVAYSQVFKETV
Briefly: TLR7 Stimulation Determined Using HEK-Blue Detection. It is filed as cell-based. The settings on record: HEK-Blue hTLR7 cells, 16 hr, percentages of maximum activation with Resiquimod, Table 1, B233-B247.
Source text: TLR7 Stimulation Determined Using HEK-Blue Detection
as §1, with “TLR7” for “TLR 8”, “hTLR7” for “hTLR8”
When growing to 50-80% confluency, HEK-Blue hTLR7 cells were plated into 96-well plate (costar 3599) at a density of 40000 cells/well. Then compounds were added with serial dilutions over 10 points with a 0.04 nM-10 μM final concentration range in 0.1% DMSO/HEK-Blue Detection. The plates were then incubated for 16 hr at 37° C. in 5% CO2 and vortex for 30 s before measurement. The optical density at 620-655 nm was read on BMG PHERAstar FSX instrument. The EC50 for each compound was determined by calculating the percentages of the maximum activation identified with Resiquimod.

With `CCC[C@H](C)Nc1nc(N)c2ncc(Cc3cnc(N4CCN(C(=O)CN)CC4)c(C)c3)n2n1` [Compound B246, (S)-2-amino-1-(4-(5-((4-amino-2-(pentan-2-ylamino)imidazo[2,1-f][1,2,4]triazin-7-yl)methyl)-3-methylpyridin-2-yl)piperazin-1-yl)ethan-1-one], the EC50 is greater than 10 µM in test [1] and 0.0109 µM in test [2].

Take `CCC[C@H](C)Nc1nc(N)c2ncc(Cc3cnc(N4CCN(CCO)CC4)c(C)c3)n2n1` [Compound B247, (S)-2-(4-(5-((4-amino-2-(pentan-2-ylamino)imidazo[2,1-f][1,2,4]triazin-7-yl)methyl)-3-methylpyridin-2-yl)piperazin-1-yl)ethan-1-ol]: the concentration giving a half-maximal response (EC50) in test [1] was greater than 10 µM; in test [2] it was 0.0006 µM.
